The source of these data is patent US20150080329A1, “PHARMACEUTICAL COMPOSITIONS COMPRISING DHA, EPA, AND/OR GLA AND AN ANTIBIOTIC AGENT AND METHODS OF USE THEREOF” (priority 2013, published 2015).

Values after ≈ are worked out from the molar mass of the structure shown. Where two headings read alike, the source gives them in different places.

What all share (format): cell-based
One assay relates to S. aureus ATCC43300. The experiment in a line: MIC and MBC determination by broth micro-dilution against S. aureus. On the technique in general: Broth dilution looks for growth in wells or tubes with falling amounts of substance.
Another assay deals with S. aureus. The experiment in a line: Checkerboard assay of interactions between LC-PUFAs and topical antimicrobial agents. The following applies: n = 2, mean ± one standard deviation. The procedure:
Checkerboard assays were performed according to the standard protocol published by the American Society for Microbiology to investigate the existence of synergistic antimicrobial interactions between the three LC-PUFAs and two anti-acne agents (BPO and SA) against P. acnes. Further checkerboards were performed against S. aureus for BPO, SA and four antibiotics used to treat topical staphylococcal infections (FUS, MUP, NEO and POL) with these agents being assessed separately against each of the three LC-PUFAs. Doubling dilutions of each compound were prepared in TSA or SBB and dispensed to 96-well plates in the standard checkerboard pattern. […] Control wells were dispensed with medium supplemented with the greatest concentration of solvent used in any well, while negative control wells contained just medium. Inoculums were prepared to 1×10^7 CFU/mL as above. Each well (except for negative controls) was inoculated with 5 μL of bacterial suspension. Plates were incubated as for MIC determinations above and then the presence of bacterial growth was determined for each well according to the clarity of the medium and/or the presence of suspended colonies. The FIC for each well was determined for each interaction and the lowest FICs from duplicate checkerboard assays were used to calculate a mean value that permitted interpretation of the nature of interaction between each combination of compounds Using the pre-determined MIC values, checkerboard assays were performed to detect the interactions between the LC-PUFAs and the clinical antimicrobial drugs against the growth of S. aureus. The lowest fractional inhibitory concentration (FIC) on duplicate checkerboards was used to calculate a mean FIC for each interaction, and a mean FIC ≦0.5 was defined as synergy while a mean FIC ≧4 was defined as antagonism. Against S. aureus, none of the combinations gave a mean FIC ≧4, indicating no antagonism of efficacy between the LC-PUFAs and the clinical antimicrobial agents (Table 4). […] (Table 4)

The test system of a further assay is P. acnes NCTC737. The experiment in a line: MIC and MBC determination by broth micro-dilution against P. acnes.
The test system of assay [1] is ten diverse isolates of S. aureus. The experiment in a line: MIC50 and MBC50 against ten diverse isolates of S. aureus. The following applies: Staphylococcus aureus; for MIC50: concentration required to inhibit 50% of ten S. aureus isolates; for MBC: concentration required to kill 50% of ten S. aureus isolates.
Setting [2] is: S. aureus, clinical antimicrobial agents (Table 3).
Setting [3] is: Cutibacterium acnes, P. acnes NCTC737, kills ≧99.9% of initial inoculum, LC-PUFAs (Table 1), read-out: MBC.
Setting [4] is: Cutibacterium acnes, P. acnes NCTC737, supplemented brucella broth, 48 h, LC-PUFAs (Table 1), read-out: MIC.
The mark [5] stands for this setting: Staphylococcus aureus, S. aureus ATCC43300, Mueller-Hinton broth, 18-20 h, LC-PUFAs (Table 1), read-out: MIC.
Setting [6] is: Staphylococcus aureus, S. aureus ATCC43300, kills ≧99.9% of initial inoculum, LC-PUFAs (Table 1), read-out: MBC.
The mark [7] stands for this setting: P. acnes, clinical antimicrobial agents (Table 3).

For the compound `NC[C@@H]1O[C@H](O[C@H]2[C@@H](O)[C@H](O[C@@H]3[C@@H](O)[C@H](N)C[C@H](N)[C@H]3O[C@H]3O[C@H](CN)[C@@H](O)[C@H](O)[C@H]3N)O[C@@H]2CO)[C@H](N)[C@@H](O)[C@@H]1O` [NEO, neomycin], in the assay on S. aureus ATCC43300 (setting [2]), the MBC (as a rule, the smallest concentration meeting the test's criterion for killing) came out at 128 µg/mL (≈ 208 µM). For the same compound, in the assay on S. aureus ATCC43300 (setting [2]), the MIC (as a rule, the least concentration at which growth counts as inhibited) is 32 µg/mL (≈ 52.1 µM). The ΣFIC in the assay on S. aureus (in combination with DHA) was determined as 0.56 ± 0.09; with S. aureus (in combination with EPA), 0.38 ± 0.00; in the assay with S. aureus (in combination with GLA), 0.19 ± 0.00.

Consider `O=C(OOC(=O)c1ccccc1)c1ccccc1` [BPO, benzoyl peroxide], for which the MBC was > 4100 µg/mL in the assay with P. acnes NCTC737 (Cutibacterium acnes, NCTC737, P. acnes, clinical antimicrobial agents (Table 3), read-out: MBC) and 512 µg/mL (≈ 2110 µM) with S. aureus ATCC43300 (Staphylococcus aureus, ATCC43300, S. aureus, clinical antimicrobial agents (Table 3), read-out: MBC). Further, the MIC in the assay on P. acnes NCTC737 (Cutibacterium acnes, NCTC737, P. acnes, clinical antimicrobial agents (Table 3), read-out: MIC) was found to be 64 µg/mL (≈ 264 µM); with S. aureus ATCC43300 (Staphylococcus aureus, ATCC43300, S. aureus, clinical antimicrobial agents (Table 3), read-out: MIC) it was 512 µg/mL (≈ 2110 µM). The results for the ΣFIC in the assay with S. aureus (in combination with DHA), in the assay with S. aureus (in combination with EPA) and in the assay on S. aureus (in combination with GLA) were 2.00 ± 0.00, 1.00 ± 0.00 and 0.56 ± 0.09, respectively.

In the assay with S. aureus ATCC43300 (setting [2]), `CC(=O)O[C@H]1C[C@@]2(C)[C@@H](C[C@@H](O)[C@H]3[C@@]4(C)CC[C@@H](O)[C@@H](C)[C@@H]4CC[C@@]32C)/C1=C(\CCC=C(C)C)C(=O)O` [FUS] yielded an MBC of 8 µg/mL (≈ 15.5 µM). In the assay on S. aureus ATCC43300 (setting [2]), this compound registered an MIC of 0.25 µg/mL (≈ 0.484 µM). Moreover, the figures for the ΣFIC in the assay with S. aureus (in combination with DHA), in the assay with S. aureus (in combination with EPA) and in the assay with S. aureus (in combination with GLA) were 2.00 ± 0.00, 1.13 ± 0.18 and 1.50 ± 0.71, respectively.

`C/C(=C\C(=O)OCCCCCCCCC(=O)O)C[C@@H]1OC[C@H](C[C@@H]2O[C@H]2[C@@H](C)[C@H](C)O)[C@@H](O)[C@H]1O` [MUP] gave an MBC in the assay with S. aureus ATCC43300 (setting [2]) of 16 µg/mL (≈ 32 µM). Also, the MIC against S. aureus ATCC43300 (setting [2]) was 0.25 µg/mL (≈ 0.499 µM). The ΣFIC with S. aureus (in combination with DHA) turned out to be 1.50 ± 0.00; with S. aureus (in combination with EPA) it was 2.00 ± 0.00; with S. aureus (in combination with GLA), 2.25 ± 0.35.

Turning to `CC/C=C\C/C=C\C/C=C\C/C=C\C/C=C\C/C=C\CCC(=O)O` [DHA, (4Z,7Z,10Z,13Z,16Z,19Z)-docosa-4,7,10,13,16,19-hexaenoic acid], the MBC in the assay on P. acnes NCTC737 (setting [3]) is > 4100 µg/mL; in the assay with S. aureus ATCC43300 (setting [6]), 128 µg/mL (≈ 390 µM); in assay [1], 256 µg/mL (≈ 779 µM). The MIC in the assay on P. acnes NCTC737 (setting [4]) worked out at 32 µg/mL (≈ 97.4 µM); with S. aureus ATCC43300 (setting [5]), 128 µg/mL (≈ 390 µM). Further, the MIC50 (usually an inhibitory concentration at the 50% level, which refers to growth in some studies and to a panel of isolates in others) in assay [1] is 128 µg/mL (≈ 390 µM).

On to polymyxin B, for which the MBC in the assay on S. aureus ATCC43300 (setting [2]) was found to be 128 µg/mL. Besides, the MIC in the assay with S. aureus ATCC43300 (setting [2]) was 16 µg/mL. Besides, the results for the ΣFIC in the assay with S. aureus (in combination with DHA), in the assay with S. aureus (in combination with EPA) and in the assay with S. aureus (in combination with GLA) were 2.00 ± 0.00, 2.00 ± 0.00 and 1.06 ± 0.62, respectively.

For `CC/C=C\C/C=C\C/C=C\C/C=C\C/C=C\CCCC(=O)O` [EPA, all-cis-5,8,11,14,17-eicosapentaenoic acid], the MBC is > 4100 µg/mL in the assay on P. acnes NCTC737 (setting [3]), 256 µg/mL (≈ 846 µM) in the assay with S. aureus ATCC43300 (setting [6]) and 256 µg/mL (≈ 846 µM) in assay [1]. The MIC in the assay with P. acnes NCTC737 (setting [4]) and with S. aureus ATCC43300 (setting [5]) was 128 µg/mL (≈ 423 µM) in each case. For the same compound, in assay [1], the MIC50 turned out to be 256 µg/mL (≈ 846 µM).

On to `CCCCC/C=C\C/C=C\C/C=C\CCCCC(=O)O` [GLA, all-cis-6,9,12-octadecatrienoic acid], for which the results for the MBC (in the assay with P. acnes NCTC737 (setting [3]); in the assay on S. aureus ATCC43300 (setting [6]); in assay [1]) were > 4100 µg/mL, 512 µg/mL (≈ 1840 µM) and 512 µg/mL (≈ 1840 µM), respectively. The MIC in the assay with P. acnes NCTC737 (setting [4]) was determined as 64 µg/mL (≈ 230 µM); with S. aureus ATCC43300 (setting [5]), 512 µg/mL (≈ 1840 µM). In assay [1], this compound gave an MIC50 of 512 µg/mL (≈ 1840 µM).

Consider `O=C(O)c1ccccc1O` [SA], for which the MBC against P. acnes NCTC737 (setting [7]) was >4096 µg/mL; with S. aureus ATCC43300 (setting [2]), 2048 µg/mL (≈ 14800 µM). The MIC with P. acnes NCTC737 (setting [7]) came to 64 µg/mL (≈ 463 µM); in the assay with S. aureus ATCC43300 (setting [2]), 1024 µg/mL (≈ 7410 µM). Moreover, the ΣFIC stood at 1.25 ± 0.35 in the assay with S. aureus (in combination with DHA), 0.88 ± 0.18 with S. aureus (in combination with EPA) and 0.88 ± 0.18 with S. aureus (in combination with GLA).
